The values below come from ChEMBL document CHEMBL5131516, “The Ascension of Targeted Covalent Inhibitors” (J Med Chem, 2022).

What is called IC50 is the concentration needed to halve the response being measured. Broadly, the EC50 is the concentration that produces a half-maximal response. Read a low EC50 as greater potency.

Test [1] has as its target T1, Tyrosine-protein kinase Tec (Homo sapiens, UniProt P42680).
T1 sequence (P42680 whole entry): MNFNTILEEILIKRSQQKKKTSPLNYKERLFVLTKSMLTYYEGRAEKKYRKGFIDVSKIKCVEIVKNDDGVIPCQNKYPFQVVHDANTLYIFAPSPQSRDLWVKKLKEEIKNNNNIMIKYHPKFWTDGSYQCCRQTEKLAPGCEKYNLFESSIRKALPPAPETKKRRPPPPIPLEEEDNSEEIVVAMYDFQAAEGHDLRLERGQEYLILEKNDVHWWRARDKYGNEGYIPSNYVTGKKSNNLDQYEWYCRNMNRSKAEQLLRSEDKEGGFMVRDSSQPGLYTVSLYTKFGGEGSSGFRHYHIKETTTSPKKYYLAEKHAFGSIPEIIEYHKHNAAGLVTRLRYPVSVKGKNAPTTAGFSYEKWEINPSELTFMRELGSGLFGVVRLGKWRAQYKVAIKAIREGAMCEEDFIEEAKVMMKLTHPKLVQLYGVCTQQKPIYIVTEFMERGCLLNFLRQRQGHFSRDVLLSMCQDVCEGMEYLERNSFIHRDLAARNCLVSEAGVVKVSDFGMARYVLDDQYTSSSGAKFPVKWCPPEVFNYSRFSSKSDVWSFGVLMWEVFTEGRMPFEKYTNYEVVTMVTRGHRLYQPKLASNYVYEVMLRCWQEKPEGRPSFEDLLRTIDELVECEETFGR
Description: Inhibition of TEC (unknown origin)

Test [2] is described as follows: Inhibition of wild-type EGFR phosphorylation in human NCI-H1819 cells. The format is cell-based.

In turn, `C=CC(=O)N1CCC([C@@H]2CCNc3c(C(N)=O)c(-c4ccc(Oc5ccccc5)cc4)nn32)CC1` [ZANUBRUTINIB] registered an IC50 in test [1] of 44 nM.
In test [2], `COc1cc2ncnc(Nc3ccc(F)c(Cl)c3)c2cc1NC(=O)/C=C/CN1CCCCC1` [DACOMITINIB ANHYDROUS] displayed an EC50 of 29 nM. That is a double-digit nanomolar value.
